Assay: molar heat capacity at constant pressure
Conditions: 101.33 kPa, Crystal, Small (less than 1 g) adiabatic calorimetry

O=C([O][Sb]([O]C(=O)C12CC3CC(CC(C3)C1)C2)([c]1ccccc1)([c]1ccccc1)[c]1ccccc1)C12CC3CC(CC(C3)C1)C2
Conditions | molar heat capacity at constant pressure [J/K/mol]
5 K | 2.04
6.41 K | 4.28
6.94 K | 5
7.48 K | 6.19
8.31 K | 8.15
9.04 K | 10
9.66 K | 11.6
10 K | 12.5
10.2 K | 13.1
10.77 K | 14.6
11.22 K | 16
11.69 K | 17.3
12.18 K | 18.9
12.78 K | 20.8
13.14 K | 22
13.61 K | 23.6
14.14 K | 25.5
14.53 K | 26.8
15 K | 28.4
15.03 K | 28.42
15.43 K | 29.84
15.87 K | 31.16
16.49 K | 33.38
17.1 K | 35.31
17.71 K | 37.46
18.32 K | 39.7
18.89 K | 41.48
19.52 K | 43.6
20 K | 45.29
20.03 K | 45.33
21.3 K | 50
21.81 K | 51.4
22.55 K | 53.73
23.78 K | 58.14
24.3 K | 60.3
25 K | 62.48
25.02 K | 62.63
26.25 K | 66.95
26.83 K | 69
27.53 K | 71.5
28.8 K | 76.1
29.43 K | 78.2
30 K | 80.54
30.12 K | 81.06
31.46 K | 85.96
32.84 K | 90.86
33.37 K | 92.7
34.23 K | 95.66
35 K | 98.3
35.64 K | 100.4
37.11 K | 105.3
38.61 K | 110.2
39.32 K | 112.6
40 K | 114.6
40.13 K | 115
41.68 K | 119.9
43.2 K | 124.6
44.84 K | 129.5
45 K | 130
46.46 K | 134.4
48.11 K | 139.3
49.81 K | 144.3
50 K | 144.9
51.54 K | 149.4
53.3 K | 154.6
55.08 K | 159.8
56.92 K | 165
58.79 K | 170.2
60 K | 173.4
60.68 K | 175.3
62.61 K | 180.4
64.56 K | 185.5
65.56 K | 188.2
66.56 K | 190.7
67.71 K | 194
68.61 K | 196.1
69.83 K | 198.9
70 K | 199.7
71.36 K | 203.1
72.79 K | 206.9
74.91 K | 212.3
76.18 K | 214.9
77.05 K | 217.4
79.88 K | 223.6
80 K | 223.8
82.03 K | 228.1
82.81 K | 229.3
84.2 K | 232.4
84.88 K | 233.7
86.94 K | 238
87.67 K | 240.1
89 K | 242.4
90 K | 244.7
90.77 K | 246
91.06 K | 246.7
93.12 K | 251.6
93.18 K | 251.3
95.1 K | 255.9
97.23 K | 260.6
99.29 K | 265.2
100 K | 266.9
101.34 K | 269.7
103.39 K | 274.4
105.44 K | 279.4
107.49 K | 283.8
109.54 K | 288
110 K | 289.1
111.58 K | 292.9
113.6 K | 297.5
115.64 K | 301.6
117.68 K | 306.6
119.72 K | 310.6
120 K | 311.3
121.6 K | 314.8
123.78 K | 319.2
125.8 K | 323.9
127.83 K | 328.3
129.85 K | 332.6
130 K | 333.5
131.86 K | 337.5
133.87 K | 341.8
135.88 K | 346.7
137.88 K | 351.3
